Tests used:
Assay type in all cases: cell-based
[1] = test system: MCF-7 human breast cancer cells; experiment: MTT cell proliferation, MCF-7; details: MCF-7 (2.5 X 10^5 cells/ml)
[2] = test system: MCF-7 human breast cancer cells; experiment: MTT cell proliferation, MCF-7
Experimental: (§1) Cell proliferation was measured using dimethylthiazoldiphenyltetrazolium (MTT) reduction (Mosman et al. J. Immunol. Methods 65:55, 1983). Unless otherwise stated, 100 Al of 5 mg of MTT (Sigma-Aldrich, St. Louis, Mo., USA) dissolved in 1 ml of PBS was added into each well. After 4 h, medium was removed from each well, 1.0 ml of acid-isopropanol (0.04 N HCI in isopropanol) was added and reduced MTT was solubilized by mixing. Absorbency of the reaction product was measured at a wavelength of 570 nm using a multiplate spectrophotometer reader (Elx800 Model, Bio-TEK Instruments Inc., Winooski, Vt., USA).
(§2) Unless stated otherwise 1.0 x 10^5 cells/ml were seeded in 6-well flat-bottom tissue culture plates and were maintained for 48 h at 370 C in a 5% CO2 atmosphere.
(§3) PC-3, LNCAP and Du-145 human prostate cancer cells; MCF-7 human breast cancer cells; HT-1080 human fibrosarcoma cancer cells; B16F1 murine melanoma cells; and, UMUC-3, RT-4, HT-1376 and T-24 human bladder cancer cells were incubated with 0.8, 8.0 and 80 μg/ml of 5.0-7.5 x 10^5 Da HA (Table 2).
(§4) Unless stated otherwise 2.0 x 10^4 cells/ml were seeded in 24-well plates and were maintained for 48 h at 370 C in a 5% CO2 atmosphere. MTT was used at 50 μl per well.
(§5) T-24 human bladder cancer cells, PC-3 and Du-145 human prostate cancer cells, and MCF-7 human breast cancer cell were incubated with saline or with 80.0 jg/ml of 5.0-7.5 x 105 Da HA +1.0 μg/ml of M-DNA (Table 4).
MTT was used at 50 µl per well.
Example 8 s HA potentiation of the anti-neoplastic effect ofchemotherapeutic drugs RT-4 human bladder cancer cells and MCF-7 human breast cancer cells were incubated as in Example 6 with 0.0, 0.008 or 0.08 pg/ml of 5.0-7.5 x 10^5 Da HA +0.1 jg/ml of CIS, +1.0 jg/ml of 5-FU or +10 jig/ml of 5-FU (Table 7).
(§6) CD44 expression and the inhibition of proliferation by 5.0-7.5 x 10^5 Da HA were measured using Jurkat T cell leukemia cells; MCF-7 human breast cancer cells; RT-4, T-24, HT-1376 and UMUC-3 human bladder cancer cells; and, PC-3, Du-145 and LNCaP prostate cancer cells (Table 8)

[3] = test system: Du-145 human prostate cancer cells; experiment: MTT cell proliferation, Du-145
Experimental: as §1, §2, §3
PC-3. LNCaP and Du-145 human prostate cancer cells were incubated with 8.0 jg/ml of 5.0-7.5 x 105 Da HA or of <1.5 x 10^4 Da HA (Table 3).
as §4, §5, §6

[4] = test system: B16F1 murine melanoma cells; experiment: MTT cell proliferation, B16F1; details: 48 h
Experimental: as §1, §2, §3

[5] = HA 80.0 μg/ml alone (+ saline), 24-well, Example 6

**Q.** What does the source list for Hyaluronic acid [5.0-7.5 × 10^5 Da HA]?
**A.** % INHIBITION of cell proliferation ([1]; HA 0.01 μg/ml alone): 6%; % INHIBITION of cell proliferation ([1]; HA 0.1 μg/ml alone): 5%; % INHIBITION of cell proliferation ([2]; HA 0.008 μg/ml alone (+ saline)): 12%; % INHIBITION of cell proliferation ([2]; HA 0.08 μg/ml alone (+ saline)): 12%; % INHIBITION of cell proliferation ([2]; HA 0.8 μg/ml, 48 h): 19%; % INHIBITION of cell proliferation ([2]; HA 8.0 μg/ml, 48 h): 24%; % INHIBITION of cell proliferation [2, 5]: 35%; % INHIBITION of cell proliferation ([2]; HA 80.0 μg/ml, 48 h): 35%; % INHIBITION of cell proliferation ([3]; HA 0.8 μg/ml, 48 h): 6%; % INHIBITION of cell proliferation ([3]; HA 8.0 μg/ml, 48 h, listed as 0.5-7.5 × 10^5 Da HA): 15%; % INHIBITION of cell proliferation [3, 5]: 38%; % INHIBITION of cell proliferation ([3]; HA 80.0 μg/ml, 48 h): 38%; % INHIBITION of cell proliferation ([4]; HA 0.8 μg/ml): 20%; % INHIBITION of cell proliferation ([4]; HA 8.0 μg/ml): 20%; % INHIBITION of cell proliferation ([4]; HA 80.0 μg/ml): 30%

Source: patent US20030176381A1, “Hyaluronic acid in the treatment of cancer” (priority 2002, published 2003)
